Data from PMC11484942, “Rumicidins are a family of mammalian host-defense peptides plugging the 70S ribosome exit tunnel” (Nature Communications, 2024).
Read-outs that look alike come from different tables or passages of the source. Bridge positions count the residues as written; N and C are the ends. Square brackets hold non-standard residues; d marks the D form. Ends that are not written are not given here. Peptide text beside a SMILES is read from it. * marks the point of attachment. X1 = CC[C@H](C)CCCCC(=O)*; Dab = NCC[C@H](N)C(=O)O

Tests used:
E. coli BW25113 = assay: MIC broth microdilution; type: cell-based, Escherichia coli; conditions: 24 h 37 °C, median of ≥3 experiments; for Minimum inhibitory concentration MHB: Mueller-Hinton broth without salt
Experimental: (§1) The reduction of resazurin to resorufin was recorded.

E. coli BW25113 ΔsbmA = type: cell-based, Escherichia coli
Experimental: as §1

E. cloacae XDR CI 4172 = type: cell-based, Enterobacter cloacae; conditions: XDR CI 4172, 24 h
Experimental: as §1

S. aureus ATCC 29213 = type: cell-based, Staphylococcus aureus; conditions: ATCC 29213, 24 h
Experimental: as §1

[1] = tested on: Mycobacterium smegmatis mc(2)155; type: cell-based; conditions: Mycobacterium mc(2)155, 24 h
Experimental: as §1

[2] = tested on: human red blood cells (hRBC); assay: Hemolysis (hemoglobin release assay); type: cell-based; conditions: mean
Experimental: (§2) Hemolytic activity of the peptides was tested against the fresh suspension of human red blood cells (hRBC) using the hemoglobin release assay as described previously. Two experiments were performed with the hRBC from blood samples collected from healthy donors by certified medical personnel upon informed written consent. All procedures were approved by the Ethics Committee of the Institute of Experimental Medicine (protocol 1/20 of 2/27/2020) and comply with the ethical principles of the Declaration of Helsinki. The quantitative data were represented as average means with standard deviations. The colorimetric 3-(4,5-dimethylthiazol-2-yl)-2,5-diphenyltetrazolium bromide (MTT) dye reduction assay was used to determine cytotoxicity of the peptides against human keratinocyte cell line (HaCaT) and transformed human embryonic kidney cells (HEK293T). Both cell lines were purchased from American Type Culture Collection (ATCC). 10^4 cells per well in Dulbecco’s modified Eagle’s medium (DMEM/F12) supplemented with 10% fetal bovine serum (FBS, Invitrogen) were placed into 96-well plates and then cultured in the CO2-incubator (5% CO2, 37 °C). After the media were removed, the peptides were dissolved in 100 µL of the same medium and added to cell cultures at different final concentrations. 20 h later, 20 μL of MTT (5 mg/mL, Sigma) was added to each well, and the plates were incubated for 4 h at 37 °C. Then, the media were discarded and 100 µL DMSO-isopropanol mixture at a ratio of 1:1 (v/v) was added to each well to dissolve the crystallized formazan. The absorbance at 570 nm was measured by a microplate reader AF2200 (Eppendorf). An optical density in the wells containing cells cultured without the peptides was assumed to represent 100% cell viability. Two independent experiments were performed for each peptide.

[3] = tested on: HEK293T (transformed embryonic kidney cells); assay: MTT cytotoxicity; type: cell-based, human; conditions: mean
Experimental: as §2

HaCaT (keratinocytes) = assay: MTT cytotoxicity; type: cell-based, human
Experimental: as §2

E. coli = type: cell-based, Escherichia coli
Source text: of bacterial cells washed with sodium phosphate buffer, whereas the addition of 0.9% NaCl and/or divalent cations minimized or even abolished the activity (Supplementary Fig. 14). The same was true for Bac7[1-22] in most cases (Supplementary Fig. 14), except for the maximum […]
“NaPB + 0.9% NaCl”), at which significant outer membrane damage was observed. Thus, in the context of the host immune system operating in a complex environment containing NaCl and divalent cations, the most likely scenario is that rumicidin's ability to disrupt the integrity of the outer membrane is suppressed. Antibacterial activity of rumicidin-1 is inhibited in the presence […]
mixture, respectively), and the electrical double layer around the cell seems to be a key barrier on the way into the cell of highly charged and relatively hydrophilic PrAMP. Perhaps, translocation of rumicidin-1 into the periplasmic space depends on electrostatic interaction with the outer membrane followed by porin-mediated uptake (the gene knockout of ompF resulted in a 4-fold increase in MIC, Fig. 5a). […]
Fig. 4), (iv) experiments on inhibition of peptide bond formation Supplementary Fig. 5, and (v) structural studies of the rumicidin complex with the ribosome by Cryo-EM (Fig.4).
Point 2. Authors claim that the effect of these peptides on membrane integrity may be due to the presence of aromatic Trp and Phe residues in their structure. However, effect of the rumicidin-1 variant W23A,F24A is not shown.
To fill this gap, we performed a comparative analysis of the ability of rumicidin-1 and its analogue [W23A,F24A] to increase the permeability of E. coli membranes under different environmental conditions. In all cases in the […]

E. coli strains = conditions: cited from earlier work
Source text: This highly cationic fragment is important for both high affinity binding of Bac7 to the ribosome and its penetration inside bacterial cells. The effect of N-terminal shortening of rumicidin-1 was not so marked: activities of the analogs 4-29 and 6-29 decreased only two-fold, while the MIC values of the analogs 9-29 and 11-29 against E. coli were ≥4- ...

E. coli 1057 WT = assay: microbe, parasite or virus in culture; type: cell-based, Escherichia coli; conditions: MHB + 0.9% NaCl
Experimental: Minimum inhibitory concentrations (MIC) were determined by broth microdilution assay based on Clinical and Laboratory Standards Institute (CLSI) guidelines using BSA in the growth medium to minimize AMP nonspecific adsorption[49]. Bacterial test cultures were grown in the Mueller-Hinton broth (MHB, Sigma) at 37 °C to mid-log phase and then diluted with the 2× MH medium supplemented with 1.8% NaCl (or without salt) so that to reach a final cell concentration of 10^6 CFU/mL. 50 µL of the obtained bacterial suspension were added to aliquots of 50 µL of the peptide solutions serially diluted with sterilized 0.1% bovine serum albumin (BSA) in 96-well flat-bottom polystyrene microplates (Eppendorf #0030730011). […] To verify MIC values, the respiratory activity of the bacteria was determined. Briefly, 5 µL of 0.5 mg/mL resazurin (Sigma) was added to the wells after 24 h (or after 48 h for M. smegmatis) of incubation, and the plate was incubated for additional 3 h. In some cases, MICs were determined in the Lysogeny Broth (LB) or Middlebrook 7H9 medium. The reduction of resazurin to resorufin was recorded. […] The results were expressed as the median values determined based on at least three independent experiments performed in triplicate.

[4] = tested on: E. coli 1057 R2 (rpoS^Q3stop, macB^N470D); conditions: MHB + 0.9% NaCl
Experimental: Minimum inhibitory concentrations (MIC) were determined by broth microdilution assay based on Clinical and Laboratory Standards Institute (CLSI) guidelines using BSA in the growth medium to minimize AMP nonspecific adsorption. Bacterial test cultures were grown in the Mueller-Hinton broth (MHB, Sigma) at 37 °C to mid-log phase and then diluted with the 2× MH medium supplemented with 1.8% NaCl (or without salt) so that to reach a final cell concentration of 10^6 CFU/mL. 50 µL of the obtained bacterial suspension were added to aliquots of 50 µL of the peptide solutions serially diluted with sterilized 0.1% bovine serum albumin (BSA) in 96-well flat-bottom polystyrene microplates (Eppendorf #0030730011). […] To verify MIC values, the respiratory activity of the bacteria was determined. Briefly, 5 µL of 0.5 mg/mL resazurin (Sigma) was added to the wells after 24 h (or after 48 h for M. smegmatis) of incubation, and the plate was incubated for additional 3 h. In some cases, MICs were determined in the Lysogeny Broth (LB) or Middlebrook 7H9 medium. The reduction of resazurin to resorufin was recorded. […] The results were expressed as the median values determined based on at least three independent experiments performed in triplicate.
(§3) Resistance induction experiments were performed using the previously described method. This approach allows for monitoring MIC values after each transfer. Briefly, on the first day, the overnight culture of the wild-type bacteria was diluted with the 2× MHB supplemented with 1.8% NaCl (or without salt) to reach a final cell concentration of 10^6 CFU/mL. 50 µL of the obtained bacterial suspension were added to aliquots of 50 µL of the peptide solutions serially diluted with the sterilized 0.1% BSA in 96-well flat-bottom polystyrene microplates. After incubation for 20 ± 2 h at 37 °C and 950 rpm, MICs were determined as described above. For each subsequent daily transfer, 2–4 μL of the inoculum taken from the first well containing a sub-inhibitory drug concentration was diluted with 2 mL of the fresh 2× MHB supplemented with 1.8% NaCl (or without salt). […] Multiple repeated passages in the presence of antimicrobial agents were performed for each bacterial strain during the experiment. Bacteria that grew at the highest concentrations of AMPs on the final day were passaged further 3 times on drug-free agar plates before determining the final MIC value.

E. coli 1057 = assay: Serial passage resistance induction; type: cell-based, Escherichia coli; conditions: serial passages, both media (MHB ±0.9%NaCl)
Experimental: as §3, with “Briefly, on the first day, the overnight culture of the wild-type bacteria was diluted with the 2× MHB supplemented with 1.8% NaCl (or without salt) to reach a final cell concentration of 10^6 CFU/mL. 50 µL of the obtained bacterial suspension were added to aliquots of 50 µL of the peptide solutions serially diluted with the sterilized 0.1% BSA in 96-well flat-bottom polystyrene microplates.” left out

[5] = tested on: E. coli BW25113 ΔtolC pDualrep2; assay: pDualrep2 double-reporter assay; type: cell-based, Escherichia coli; conditions: agar plate, overnight 37 °C
Experimental: For in vivo bioactivity test, the reporter strain BW25113 ΔtolC-pDualrep2 was used as previously described. Briefly, 10 µL of solutions of tested peptides (0.2 mM of full-length rumicidin isoforms; 0.5 mM of Rum-1[1-22] and Rum-1[9-29]) were applied to an agar plate contained a lawn of the reporter strain. 5 mg/ml erythromycin (Ery, 1 µL) and 25 µg/ml levofloxacin (Lev, 1 µL) solutions were used as control samples. After being incubated overnight at 37 °C, the plate was scanned by ChemiDoc (Bio-Rad) using “Cy3-blot” settings for RFP and “Cy5-blot” for the Katushka2S protein. At least, two independent experiments were performed, and the observed effects were the same.

70S initiation complexes = assay: Peptide bond formation (fMet-[14C]Val dipeptide); type: biochemical; conditions: 30 µM amicoumacin A; 2 min 37 °C; three replicates; intact complexes 77 ± 5%
Experimental: Initiation complexes and ternary complexes were prepared as described previously[21],[59]. Where necessary initiation complexes were supplemented with rumicidin-1 (1 μM) or amicoumacin A (30 μM) followed by additional incubation for 5 min at 37 °C. To analyze formation of dipeptide fMet-Val, 0.2 μM 70S initiation complexes containing fMet-tRNA^fMet in the P site were mixed with 0.375 μM ternary complexes EF-Tu⋅GTP⋅[^14C]Val-tRNA^Val (444 dpm/pmol) and incubated for 2 min at 37 °C. Then samples were quenched with 1/10 volume of 5 M KOH and hydrolyzed for 30 min at 37 °C. Samples were neutralized with 1/10 volume of glacial acetic acid and analyzed by reversed-phase HPLC on RP8 (Merck) with an acetonitrile gradient in 0.1% trifluoroacetic acid. Percentage of synthesized dipeptide was determined by incorporation of the radioactive label as a ratio of peptide formed to the amount of the 70S ribosomes in the reaction mixture, as described earlier. Experiments were done in three replicates.

Compound: RARRPRPPKPRPPHRPRPRPRPWFPPRFP [Rumicidin-1]
- Minimum inhibitory concentration MHB + 0.9% NaCl (E. coli BW25113; Mueller-Hinton broth + 0.9% NaCl, listed as WT): 4 to 8 µM
- Minimum inhibitory concentration MHB (E. coli BW25113): 1 µM
- Minimum inhibitory concentration MHB (E. coli BW25113; listed as WT): 2 µM
- MIC (E. coli BW25113 ΔsbmA; MHB + 0.9% NaCl): ≥ 64 µM
- MIC (E. coli BW25113 ΔsbmA; salt-free MHB): 1 µM
- MIC E. cloacae XDR CI 4172 (E. cloacae XDR CI 4172): 2 µM
- MIC S. aureus ATCC 29213 (S. aureus ATCC 29213): > 32 µM
- MICs depending on the test medium [1]: 0.125 to 0.5 µM
- Hemolysis ([2]; 0.25 µM): 0.134%
- Hemolysis ([2]; 0.5 µM): 0.357%
- Hemolysis ([2]; 1 µM): 0.408%
- Hemolysis ([2]; 2 µM): 0.624%
- Hemolysis ([2]; 4 µM): 0.667%
- Hemolysis ([2]; 8 µM): 0.801%
- Hemolysis ([2]; 16 µM): 0.83%
- Hemolysis ([2]; 32 µM): 0.911%
- Hemolysis ([2]; 64 µM): 0.932%
- HEK293T cell viability ([3]; 1 µM): 105.704%
- HEK293T cell viability ([3]; 2 µM): 104.142%
- HEK293T cell viability ([3]; 4 µM): 106.626%
- HEK293T cell viability ([3]; 8 µM): 103.664%
- HEK293T cell viability ([3]; 16 µM): 105.32%
- HEK293T cell viability ([3]; 32 µM): 89.704%
- HEK293T cell viability ([3]; 64 µM): 72.479%
- HaCaT cell viability (HaCaT (keratinocytes); 1 µM): 104.258%
- HaCaT cell viability (HaCaT (keratinocytes); 2 µM): 105.615%
- HaCaT cell viability (HaCaT (keratinocytes); 4 µM): 107.778%
- HaCaT cell viability (HaCaT (keratinocytes); 8 µM): 104.973%
- HaCaT cell viability (HaCaT (keratinocytes); 16 µM): 107.318%
- HaCaT cell viability (HaCaT (keratinocytes); 32 µM): 107.645%
- HaCaT cell viability (HaCaT (keratinocytes); 64 µM): 99.839%
- MIC (E. coli; MH medium with NaCl): 4 µM
- MIC (E. coli; MH medium with NaCl and divalent cations (mixture)): 16 to 32 µM
- MIC (E. coli; MH medium with divalent cations): 8 µM
- MIC (E. coli; salt-free MH medium): 1 µM

Compound: Bac7[5-35]: Bac7 fragment lacking four N-terminal residues (RRIR) (PRPPRLPRPRPRPLPFPRPGPRPIPRPLPFP; Bactenecin-7; UniProt P19661 135-165, looked up, fragment)
- fold increase in MIC on deletion of four N-terminal residues (RRIR) (E. coli strains): ≥ 16 fold

Compound: CC[C@H](C)CCCCC(=O)N[C@@H](CCN)C(=O)N[C@H](C(=O)N[C@@H](CCN)C(=O)N[C@H]1CCNC(=O)[C@H]([C@@H](C)O)NC(=O)[C@H](CCN)NC(=O)[C@H](CCN)NC(=O)[C@H](CC(C)C)NC(=O)[C@@H](Cc2ccccc2)NC(=O)[C@H](CCN)NC1=O)[C@@H](C)O [Polymyxin B] (X1-[Dab]T[Dab][Dab][Dab][dF]L[Dab][Dab]T; lactam 4-C (inferred); N-terminus assumed)
- MIC (E. coli 1057 WT): 0.062 µM
- MIC [4]: 4 µM
- fold increase in MIC values under selection (E. coli 1057): 128 fold

Compound: CC[C@H]1OC(=O)[C@H](C)[C@@H](O[C@H]2C[C@@](C)(OC)[C@@H](O)[C@H](C)O2)[C@H](C)[C@@H](O[C@@H]2O[C@H](C)C[C@H](N(C)C)[C@H]2O)[C@](C)(O)C[C@@H](C)C(=O)[C@H](C)[C@@H](O)[C@]1(C)O [Erythromycin]
- reporter induction [5]: strongly induced biosynthesis of Katushka2S, but not of RFP
- MIC (E. coli 1057 WT; Escherichia coli, 1057WT, 24 h): 1020 µM

Compound: CC(C)C[C@H](NC(=O)[C@@H](O)[C@@H](O)[C@@H](N)CC(N)=O)[C@@H]1Cc2cccc(O)c2C(=O)O1 [amicoumacin A]
- fMet-[14C]Val dipeptide formed (70S initiation complexes): 72 ± 7%

Compound: Bac7[5-23]: Bac7 fragment lacking four N-terminal residues (RRIR) (PRPPRLPRPRPRPLPFPRP; Bactenecin-7; UniProt P19661 135-153, looked up, fragment)
- fold increase in MIC on deletion of four N-terminal residues (RRIR) (E. coli strains): ≥ 16 fold
